The record followed here is US20080269121A1, “Methods and Compositions Involving A1c Subunit of L-Type Calcium Channels in Smooth Muscle Cells” (The Board of Regents of the University of Texas System, priority 2005, published 2008).

This assay relates to p65 subunit. The assay is described as follows: Nuclear abundance and binding of NF-κB p65 in HCCSMC. It is filed as cell-based, human. Here is the method: Cytoplasmic and nuclear protein, and RNA extraction: Cytoplasmic and nuclear proteins were prepared as described earlier by Shi et al. Briefly, the cells were washed twice with phosphate-buffered saline solution and then with buffer A (in mM: 10 HEPES, 1.5 MgCl2, 10 KCl, 0.5 dithiothreitol, 0.5 phenylmethylsulfrenyl fluoride [PMSF]; 10 ng/mL leupeptin, and 10 ng/mL aprotinin). The cells were resuspended in 25 μL of buffer A containing 0.25% NP-40 and incubated at 4° C. for 10 minutes. After centrifugation at 12,000 g for 10 minutes, the supernatant was collected as cytoplasmic extract. The nuclear pellet was resuspended in 20 μL of buffer C (in mM: 20 HEPES, […], 1.5 MgCl2, 0.2 ethylenediaimetetraacetic acid (EDTA), 0.5 DTT, 0.5 PMSF; 24% glycerol, 10 ng/mL leupeptin, and 10 ng/mL aprotinin) and incubated on ice with frequent vortexing for 15 minutes. The samples were centrifuged at 14,000 g for 10 minutes, and the supernatant (nuclear extract) was transferred to a fresh tube with 5 volumes of buffer D (in mM: 20 HEPES, 0.2 EDTA, 50 KCl, 0.5 DTT, 0.5 PMSF; 20% glycerol, 10 ng/mL leupeptin, and 10 ng/mL aprotinin). The protein concentration was determined by using the Bio-Rad assay kit (Bio-Rad Laboratories, Hercules, Calif.).
Electrophoretic mobility shift assay. […]

vasoactive intestinal polypeptide [VIP]: the “abundance of p65 in the nucleus, VIP and TNFα versus TNFα alone” value is “did not seem to be different”.
